# How the values were obtained:
# [1] = test system: antral portion of the stomach; test: Rat stomach contraction in vivo: topical application between two transducing crystals on the antrum; set-up: species or system Sprague-Dawley rats
# From the text: Two male Sprague-Dawley rats, approximately 12 weeks old (Harlan, Indianapolis, Ind.) were anesthetized with urethane and their stomachs were exposed through a small abdominal incision. Two 2.4 mm transducing crystals (Sonometrics, Ontario, Canada) were placed on the antral portion of the stomach such that circular contractions could be monitored as a change in the distance between the two crystals. The crystals were attached with VETBOND TISSUE ADHESIVE (3M, St. Paul, Minn.).
# The amplitude of the NE-induced decrease was approximately 50% of the acetylcholine-induced increase in distance. Both responses were transient.
# A negative control of 10 μl of phosphate buffer solution (PBS) applied topically between the crystals had no effect.
# A 14 amino acid zsig33 peptide (from amino acid residue 24 (Gly) to amino acid residue 37 (Gln) of SEQ ID NO: 2) was dissolved in PBS) and 10 μl was applied topically for a final concentration of 1 μg, 10 μg or 100 μg.
# ob/ob mice = test: Oral glucose challenge in ob/ob mice after oral gavage of the peptide (serum glucose levels); assay type: in vivo; details: 100 μg orally, 30 minutes prior to oral glucose challenge
# Experimental: Eight female ob/ob mice, approximately 6 weeks […] old (Jackson Labs, Bar Harbor, Me.) were adapted to a 4 hour daily feeding schedule for two weeks. After two weeks on the feeding schedule, the mice were give 100 μg of a 14 amino acid amino zsig33 peptide (from amino acid residue 24 (Gly) to amino acid residue 37 (Gln) of SEQ ID NO: 2) in 100 μl sterile 0.1% BSA by oral gavage, immediately after their eating period (post-prandially). Thirty minutes later, the mice were challenged orally with a 0.5 ml volume of 25% glucose. Retroorbital bleeds were done to determine serum glucose levels. Blood was drawn prior to zsig33 dosing, prior to oral glucose challenge, and at 1, 2, 4, and 20 hours following the glucose challenge.
# [2] = 10 μl of 1 μM applied topically, anesthetized rats
Molecule,"amplitude of the NE-induced decrease relative to the acetylcholine-induced increase in distance [1, 2]","change in the distance between the two crystals (circular contractions of the stomach) [1, 2]",post-prandial glucose absorption (serum glucose levels) (ob/ob mice),change in crystal distance (stomach contractions) ([1]; 1 μg in 10 μl PBS applied topically),change in crystal distance (rate and amplitude of contractions) ([1]; 10 μg in 10 μl PBS applied topically),change in crystal distance (rate and amplitude of contractions) ([1]; 100 μg in 10 μl PBS applied topically)
"NC[C@H](O)c1ccc(O)c(O)c1 [norepinephrine, reference compound]",approximately 50%,reduction in the distance between the two crystals,,,,
"zsig33 peptide: 14 amino acid zsig33 peptide, from amino acid residue 24 (Gly) to amino acid residue 37 (Gln) of SEQ ID NO: 2 (GSSFLSPEHQRVQQ)",,,enhanced post-prandial glucose absorption,"sustained, rhythmic increase and decrease in crystal distance",enhanced responses in both rate and amplitude,enhanced responses in both rate and amplitude

# From patent publication US6380158B1, “Motilin homologs” (ZymoGenetics, Inc., priority 1997, dated 2002)
